# Test results reported in US20230012368A1 (Hoffmann-La Roche Inc., priority 2018, published 2023).
# Structures can show the parent of a compound that is named as a salt.
# System: Acinetobacter baumannii ATCC 17978
# Test: Antimicrobial susceptibility testing: 90% growth inhibitory concentration (IC90) determination
# Type: cell-based
# Conditions: 90% growth inhibitory concentration; Acinetobacter baumannii ATCC17978; Iso-Sensitest broth, OD 600 nm over 16h; read-out: ATCC17978 IC90
# Method in brief: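 Compounds serially twofold diluted (e.g. 50 to 0.097 μM final) in Iso-Sensitest broth, inoculated at ~5×10^(5) CFU/ml, incubated at 35±2° C. OD600 read every 20 minutes over 16h. IC90 taken as concentration inhibiting 90% of growth during logarithmic phase.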
row,SMILES,IC90
1,"CCc1cc(Nc2nccn3c(-c4ccc(OC)c(F)c4F)cnc23)ccc1C(=O)NCCCNC(=O)CC[C@H](NC(=O)[C@@H](N)CCCCN)C(=O)O [Example 403, N2-(L-lysyl)-N5-(3-(4-((3-(2,3-difluoro-4-methoxyphenyl)imidazo[1,2-a]pyrazin-8-yl)amino)-2-ethylbenzamido)propyl)-L-glutamine trihydrochloride]",0.94 µM
2,"CCc1cc(Nc2nccn3c(-c4ccc(Cl)cc4F)cnc23)ccc1C(=O)NCCCN [Example 283, N-(3-aminopropyl)-4-[[3-(4-chloro-2-fluorophenyl)imidazo[1,2-a]pyrazin-8-yl]amino]-2-ethylbenzamide; hydrochloride]",2 µM
3,"COc1ccc(-c2cnc3c(Nc4ccc(C(=O)NCC5CCS(=O)(=O)CC5)c(Cl)c4)nccn23)c(F)c1F [Example 106, 2-chloro-4-[[3-(2,3-difluoro-4-methoxy-phenyl)imidazo[1,2-a]pyrazin-8-yl]amino]-N-[(1,1-dioxothian-4-yl)methyl]benzamide; 2,2,2-trifluoroacetic acid]",0.14 µM
4,"CCc1cc(Nc2nccn3c(-c4ccc(OC)c(F)c4F)cnc23)ccc1C(=O)NCCCCN [Example 514, N-(4-aminobutyl)-4-((3-(2,3-difluoro-4-methoxyphenyl)imidazo[1,2-a]pyrazin-8-yl)amino)-2-ethylbenzamide hydrochloride]",0.048 µM

# Same assay, conditions: Acinetobacter baumannii, ATCC17978, 16 h, 90% growth inhibitory concentration; Acinetobacter baumannii ATCC17978; Iso-Sensitest broth, OD 600 nm over 16h; read-out: ATCC17978 IC90
row,SMILES,IC90
1,CCc1cc(Nc2nccn3c(-c4ccc(OC)c(F)c4F)cnc23)ccc1C(=O)NCCCNC(=O)NCCCN [Example 120],0.14 µM
2,"Cc1cc(Nc2nccn3c(-c4ccc(OC(F)F)cc4)cnc23)ccc1C(=O)NCCSc1nnnn1C [Example 176, 4-[[3-[4-(difluoromethoxy)phenyl]im-idazo[1,2-a]pyrazin-8-yl]amino]-2-methyl-N-[2-(1-methyltetrazol-5-yl)sulfanylethyl]benzamide]",0.52 µM
3,"COc1ccc(-c2cnc3c(Nc4ccc(C(=O)NCC5CCNCC5)c(C)c4)nccn23)c(F)c1F [Example 55, 4-[[3-(2,3-difluoro-4-methoxy-phenyl)imidazo[1,2-a]pyrazin-8-yl]amino]-2-methyl-N-(4-piperidylmethyl) benzamide]",0.26 µM
4,"Cn1cc(CNC(=O)c2ccc(Nc3nccn4c(-c5ccc(OCC#N)c(F)c5F)cnc34)cc2Cl)ccc1=O [Example 87, 2-chloro-4-[[3-[4-(cyanomethoxy)-2,3-difluoro-phenyl]imidazo[1,2-a]pyrazin-8-yl]amino]-N-[(1-methyl-6-oxo-3-pyridyl)methyl] benzamide]",0.08 µM
5,"COc1ccc(-c2cnc3c(Nc4ccc(C(=O)NCC5CCN(C)CC5)c(C)c4)nccn23)cc1 [Example 52, 4-[[3-(4-methoxyphenyl)imidazo [1,2-a]pyrazin-8-yl]amino]-2-methyl-N-[(1-methylpiperidin-4-yl)methyl]benzamide]",0.75 µM
6,"CCc1cc(Nc2nccn3c(-c4ccc(OC)c(F)c4F)cnc23)ccc1C(=O)NC[C@H](C)NC(=O)[C@@H](N)CCCNC(=N)N [Example 123, N-[(2S)-2-[[(2S)-2-amino-5-guanidino-pentanoyl]amino]propyl]-4-[[3-(2,3-difluoro-4-methoxy-phenyl)imidazo[1,2-a]pyrazin-8-yl]amino]-2-ethyl-benzamide formate]",0.41 µM
7,"CCc1cc(Nc2nccn3c(-c4ccc(OC)c(F)c4F)cnc23)ccc1C(=O)NCCCC(=O)N1CCN[C@H](CO)C1 [Example 161, 4-[[3-(2,3-difluoro-4-methoxy-phenyl)imidazo[1,2-a]pyrazin-8-yl]amino]-2-ethyl-N-[4-[(3S)-3-(hydroxymethyl)piperazin-1-yl]-4-oxo-butyl]benzamide]",0.08 µM
8,"COc1ccc(-c2cnc3c(Nc4ccc(C(=O)N(C)CCC5CCNCC5)c(C)c4)nccn23)cc1F [Example 11, hydrochloride]",0.14 µM
9,"COc1ccc(-c2cnc3c(Nc4ccc(C(=O)NCC5CNCCO5)c(Cl)c4)nccn23)cc1F (stereo not shown) [Example 233, 2-chloro-4-[[3-(3-fluoro-4-methoxyphenyl)imidazo[1,2-a]pyrazin-8-yl]amino]-N-(morpholin-2-ylmethyl)benzamide; hydrochlo-ride]",1.3 µM
10,"CCc1cc(Nc2nccn3c(-c4ccc(OC)c(F)c4F)cnc23)ccc1C(=O)N[C@@H](C)CN [Example 102, (S)-N-(1-aminopropan-2-yl)-4-((3-(2,3-difluoro-4-methoxyphenyl)imidazo [1,2-a]pyrazin-8-yl)amino)-2-ethylbenzamide dihydrochloride]",0.32 µM
11,"CNC(=O)c1ccc(Nc2nccn3c(-c4ccc(OC(F)F)cc4)cnc23)cc1Cl [Example 110, 2-chloro-4-((3-(4-(difluoromethoxy)phenyl)imidazo[1,2-a]pyrazin-8-yl)amino)-N-methylbenzamide]",0.25 µM
12,"COc1ccc(-c2cnc3c(Nc4ccc(C(=O)NCCCN5CCNCC5)c(C)c4)nccn23)c(F)c1F [Example 67, 4-((3-(2,3-difluoro-4-methoxyphenyl)imidazo [1,2-a]pyrazin-8-yl)amino)-2-methyl-N-(3-(piperazin-1-yl)propyl)benzamide]",0.12 µM
13,"C=Cc1cc(Nc2nccn3c(-c4ccc(OC(F)F)cc4)cnc23)ccc1C(=O)NCCN1CCNCC1 [Example 238, 4-[[3-[4-(difluoromethoxy)phenyl]im-idazo[1,2-a]pyrazin-8-yl]amino]-2-ethenyl-N-(2-piperazin-1-ylethyl)benzamide; hydrochlo-ride]",1.8 µM

# Continued, values first:
row,IC90,SMILES
1,0.48 µM,"CCc1cc(Nc2nccn3c(-c4ccc(OC)c(F)c4F)cnc23)ccc1C(=O)NCC[C@H](C)NC(=O)[C@@H](N)CCCNC(=N)N [Example 336, N-[(3S)-3-[[(2S)-2-amino-5-carbamimidamidopentanoyl]amino]butyl]-4-[[3-(2,3-difluoro-4-methoxyphenyl)imidazo[1,2-a]pyrazin-8-yl]amino]-2-ethylbenzamide; hydrochloride]"
2,0.051 µM,"COc1ccc(-c2cnc3c(Nc4ccc5c(c4)CCN(C)C5=O)nccn23)c(F)c1F [Example 391, 6-[[3-(2,3-difluoro-4-methoxy-phenyl)imidazo[1,2-a]pyrazin-8-yl]amino]-2-methyl-3,4-dihydroisoquinolin-1-one]"
3,2 µM,"Cc1cc(Nc2nccn3c(-c4ccc(OC(F)F)cc4)cnc23)ccc1C(=O)NCC1CNCCO1 (stereo not shown) [Example 242, 4-[[3-[4-(difluoromethoxy)phenyl]im-idazo[1,2-a]pyrazin-8-yl]amino]-2-methyl-N-(morpholin-2-ylmethyl)benzamide; hydrochlo-ride]"
4,0.95 µM,"CCc1cc(Nc2nccn3c(-c4ccc(OC)c(F)c4F)cnc23)ccc1C(=O)N[C@H](C)C(=O)NCCNC [Example 566, 4-[[3-(2,3-difluoro-4-methoxy-phenyl)imidazo[1,2-a]pyrazin-8-yl]amino]-2-ethyl-N-[(1R)-1-methyl-2-[2-(methylamino)ethylamino]-2-oxo-ethyl]benzamide]"
5,1.9 µM,"Cc1cc(Nc2nccn3c(-c4ccc(OC(F)F)cc4)cnc23)ccc1C(=O)N(C)CCN1C[C@@H](C)O[C@@H](C)C1 [Example 256, 4-[[3-[4-(difluoromethoxy)phenyl]im-idazo[1,2-a]pyrazin-8-yl]amino]-N,2-dimethyl-N-[2-[rac-(2R,6S)-2,6-dimethylmorpholin-4-yl]ethyl]benzamide]"
6,0.52 µM,"CCc1cc(Nc2nccn3c(-c4ccc(Oc5nccc(OC)n5)c(F)c4F)cnc23)ccc1C(=O)N[C@@H](C)CN [Example 462, (S)-N-(1-aminopropan-2-yl)-4-((3-(2,3-difluoro-4-((4-methoxypyrimidin-2-yl)oxy)phenyl)imidazo[1,2-a]pyrazin-8-yl)amino)-2-ethylbenzamide]"
7,0.06 µM,"CCc1cc(Nc2nccn3c(-c4ccc(OC)c(F)c4F)cnc23)ccc1C(=O)NCCCNC(=O)[C@@H](N)CNC(=N)N [Example 359, N-[3-[[(2S)-2-amino-3-carbamimidamidopropanoyl]amino]propyl]-4-[[3-(2,3-difluoro-4-methoxyphenyl)imidazo[1,2-a]pyrazin-8-yl]amino]-2-ethylbenzamide]"
8,0.47 µM,"CCc1cc(Nc2nccn3c(-c4ccc(Oc5ccc(OC)cn5)c(F)c4F)cnc23)ccc1C(=O)NCCNC(=O)CCN [Example 448, N-[2-(3-aminopropanoylamino)ethyl]-4-[[3-[2,3-difluoro-4-[(5-methoxy-2-pyridyl)oxy]phenyl]imidazo [1,2-a]pyrazin-8-yl]amino]-2-ethyl-benzamide; formic acid]"
9,0.11 µM,"COc1ccc(-c2cnc3c(Nc4ccc(C(=O)NCC5CCN(C(=N)N)CC5)c(C)c4)nccn23)c(F)c1F [Example 292, N-[(1-carbamimidoylpiperidin-4-yl)methyl]-4-[[3-(2,3-difluoro-4-methoxyphenyl)imidazo[1,2-a]pyrazin-8-yl]amino]-2-methylbenzamide]"
10,0.8 µM,"CCc1cc(Nc2nccn3c(-c4ccc(OC(F)F)c(F)c4F)cnc23)ccc1C(=O)NCC1(O)CCNC1 (stereo not shown) [Example 311, 4-[[3-[4-(difluoromethoxy)-2,3-difluorophenyl]imidazo[1,2-a]pyrazin-8-yl]amino]-2-ethyl-N-[(3-hydroxypyrrolidin-3-yl)methyl]benzamide;hydro-chloride]"
11,0.05 µM,"Cc1cc(Nc2nccn3c(-c4ccc(OCC#N)c(F)c4F)cnc23)ccc1C(=O)NCCCNC(=O)[C@@H]1C[C@@H](O)CN1 [Example 357, (2S,4R)-N-[3-[[4-[[3-[4-(cyanomethoxy)-2,3-difluorophenyl]imidazo[1,2-a]pyrazin-8-yl]amino]-2-methylbenzoyl]amino]propyl]-4-hydroxypyrrolidine-2-carboxamide]"
